Source: paper PMC8968952, “Modulation of ERCC1-XPF Heterodimerization Inhibition via Structural Modification of Small Molecule Inhibitor Side-Chains” (Frontiers in Oncology, 2022)

Columns and labels:
[1] = test system: ERCC1 or XPF levels in A549 cells; assay: Western blot of ERCC1 and XPF protein levels (PLA control); format: cell-based, human; conditions: 2 µM, 24 h
Experimental: page 1: Supplementary Material […] Supplementary Figure 1. ERCC1-XPF mediated cleavage of the stem-loop DNA substrate, in which the FAM signal is quenched, releases the fluorescently tagged octanucleotide. Triplicate measurements of the control (DMSO) and the effect of 10 μM of compounds 4 and 6 on the incision activity is shown. 2 PLA Control Experiments Supplementary Figure 2. A549 cells were seeded in 6-well culture dishes (Thermo Fishes Scientific) at a density of 0.3 X 10^6 cells/well in a final volume of 3 ml. […] The chambers were incubated for 24 h and then washed with PBS and the cells were solubilized with RIPA buffer in the presence of protease inhibitor cocktail (Cell Signaling Technology) plus 2 mM EDTA. […] EpiGentek), XPF (LS- C173159, 1:1000; LifeSpan BioSciences, Seattle, WA) and B-Actin (sc-47778, 1:1000; Santa Cruz) primary antibodies followed by secondary anti-mouse or anti-rabbit secondary HRP-conjugated secondary antibodies. ECL chemiluminescent substrate (Promega) was used to detect the proteins. 3 Cytotoxicity Analysis Supplementary Figure 3. Cytotoxicity assay using colony forming assay 4 HCT-116 Derived XPF Knockout Cells For CRISPR deletion of XPF from HCT-116 cells, the pSpCas9(BB)-2A-GFP (pX458) vector (Addgene plasmid # 48138) was used. The short guide sequence to target XPF exon one was: 5'- [NT] 3' and target XPF exon eight was: 5'- [NT]3'. […]

HCT-116 cells [2] = test system: HCT-116 cells; set-up: method as in PMID 31369707; conditions: 2 μM, after 24 hours; cited from earlier work
[3] = molecular target: T1, ERCC1-XPF heterodimer in A549 cells (Homo sapiens, UniProt Q92889); set-up: method as in PMID 33399940; conditions: A549 cells treated with 20 μM cisplatin and 1 μM inhibitor; cited from earlier work
T1 construct: endogenous in cells; host or cells: A549
T1 sequence (Q92889 1-916): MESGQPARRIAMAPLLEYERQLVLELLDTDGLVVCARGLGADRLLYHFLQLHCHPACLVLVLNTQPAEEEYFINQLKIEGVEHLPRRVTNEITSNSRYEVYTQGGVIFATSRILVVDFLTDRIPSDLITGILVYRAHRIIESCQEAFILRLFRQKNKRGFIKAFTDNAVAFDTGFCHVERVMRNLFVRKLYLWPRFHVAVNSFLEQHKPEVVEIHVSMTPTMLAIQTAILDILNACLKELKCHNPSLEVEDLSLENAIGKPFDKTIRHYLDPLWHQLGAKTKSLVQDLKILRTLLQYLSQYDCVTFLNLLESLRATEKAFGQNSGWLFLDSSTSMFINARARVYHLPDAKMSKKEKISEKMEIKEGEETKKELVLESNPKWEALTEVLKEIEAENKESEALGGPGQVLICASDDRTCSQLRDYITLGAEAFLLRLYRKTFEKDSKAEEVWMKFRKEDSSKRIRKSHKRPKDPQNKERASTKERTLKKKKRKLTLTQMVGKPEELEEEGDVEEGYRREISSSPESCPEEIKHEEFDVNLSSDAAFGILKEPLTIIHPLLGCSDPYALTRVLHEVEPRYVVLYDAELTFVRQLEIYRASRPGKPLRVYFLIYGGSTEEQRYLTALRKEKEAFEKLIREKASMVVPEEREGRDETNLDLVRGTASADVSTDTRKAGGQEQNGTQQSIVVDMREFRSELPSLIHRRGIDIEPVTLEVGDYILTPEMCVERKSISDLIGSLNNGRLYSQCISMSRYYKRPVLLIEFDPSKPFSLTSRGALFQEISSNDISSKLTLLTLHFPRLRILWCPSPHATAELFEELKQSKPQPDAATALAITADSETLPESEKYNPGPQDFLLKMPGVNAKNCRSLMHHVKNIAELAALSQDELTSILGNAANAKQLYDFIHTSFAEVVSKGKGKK

HCT-116 cells [4] = test system: HCT-116 cells; set-up: method as in PMID 31369707; conditions: 1.0 μM compound, 4 J/m^2 UVC; cited from earlier work
HCT-116 cells [5] = test system: HCT-116 cells; set-up: method as in PMID 31369707; conditions: 1 μM compound, 50 μM cyclophosphamide; cited from earlier work
[6] = set-up: method as in PMID 31369707; conditions: cited from earlier work
[7] = set-up: method as in PMID 31369707; conditions: cited from earlier work; remark: listed apart in the source
CYP2C9 = CYP2C9 (Homo sapiens, UniProt P11712); set-up: method as in PMID 31369707; conditions: read-out: Inhibition of cytochrome P450 (IC50) CYP2C9; cited from earlier work
CYP2C19 = CYP2C19 (Homo sapiens, UniProt P33261); set-up: method as in PMID 31369707; conditions: read-out: Inhibition of cytochrome P450 (IC50) CYP2C19; cited from earlier work
CYP2D6 = CYP2D6 (Homo sapiens, UniProt P10635); set-up: method as in PMID 31369707; conditions: read-out: Inhibition of cytochrome P450 (IC50) CYP2D6; cited from earlier work
CYP3A4-M = CYP3A4-M (Homo sapiens, UniProt P08684); set-up: method as in PMID 31369707; conditions: read-out: Inhibition of cytochrome P450 (IC50) CYP3A4-M; cited from earlier work
CYP3A4-M, sequence (P08684 whole entry): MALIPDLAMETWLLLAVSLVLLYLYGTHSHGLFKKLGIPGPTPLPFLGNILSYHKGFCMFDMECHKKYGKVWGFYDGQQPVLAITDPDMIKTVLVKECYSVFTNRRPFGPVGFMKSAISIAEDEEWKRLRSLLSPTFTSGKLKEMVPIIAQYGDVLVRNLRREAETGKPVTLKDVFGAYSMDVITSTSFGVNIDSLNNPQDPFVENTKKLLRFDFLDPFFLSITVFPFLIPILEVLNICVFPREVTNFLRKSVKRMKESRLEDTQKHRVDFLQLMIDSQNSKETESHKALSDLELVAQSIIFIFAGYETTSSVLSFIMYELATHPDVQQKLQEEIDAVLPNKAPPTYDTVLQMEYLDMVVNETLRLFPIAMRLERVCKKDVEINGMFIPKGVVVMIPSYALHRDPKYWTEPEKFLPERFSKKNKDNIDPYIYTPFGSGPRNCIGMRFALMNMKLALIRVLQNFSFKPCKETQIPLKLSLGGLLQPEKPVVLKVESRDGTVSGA

CYP2D6, sequence (P10635 whole entry): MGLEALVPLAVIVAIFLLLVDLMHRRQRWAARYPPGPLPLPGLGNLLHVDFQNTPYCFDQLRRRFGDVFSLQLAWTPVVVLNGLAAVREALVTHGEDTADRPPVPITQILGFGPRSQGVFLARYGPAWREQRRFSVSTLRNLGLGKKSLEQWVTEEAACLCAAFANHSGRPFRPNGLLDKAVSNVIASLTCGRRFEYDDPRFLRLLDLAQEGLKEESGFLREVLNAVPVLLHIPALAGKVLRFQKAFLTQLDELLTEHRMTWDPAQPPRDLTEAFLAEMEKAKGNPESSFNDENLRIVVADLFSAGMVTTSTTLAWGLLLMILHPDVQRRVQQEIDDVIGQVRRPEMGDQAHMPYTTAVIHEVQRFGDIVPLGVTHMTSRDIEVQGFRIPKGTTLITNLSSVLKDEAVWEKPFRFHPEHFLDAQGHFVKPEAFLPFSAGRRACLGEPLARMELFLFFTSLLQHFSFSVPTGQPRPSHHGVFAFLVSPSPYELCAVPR
CYP2C9, sequence (P11712 whole entry): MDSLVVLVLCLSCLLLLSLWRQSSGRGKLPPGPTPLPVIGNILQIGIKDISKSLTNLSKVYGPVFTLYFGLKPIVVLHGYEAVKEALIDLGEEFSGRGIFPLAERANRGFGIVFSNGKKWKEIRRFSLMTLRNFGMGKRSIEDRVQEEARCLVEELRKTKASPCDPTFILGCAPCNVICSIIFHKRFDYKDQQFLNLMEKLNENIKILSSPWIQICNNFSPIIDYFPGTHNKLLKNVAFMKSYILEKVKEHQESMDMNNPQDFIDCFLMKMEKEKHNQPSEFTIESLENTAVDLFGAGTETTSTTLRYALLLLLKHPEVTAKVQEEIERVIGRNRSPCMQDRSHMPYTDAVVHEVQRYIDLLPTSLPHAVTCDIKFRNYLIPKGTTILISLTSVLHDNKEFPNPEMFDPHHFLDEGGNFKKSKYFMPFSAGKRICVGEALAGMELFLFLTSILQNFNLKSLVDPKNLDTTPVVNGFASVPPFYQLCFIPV
CYP2C19, sequence (P33261 whole entry): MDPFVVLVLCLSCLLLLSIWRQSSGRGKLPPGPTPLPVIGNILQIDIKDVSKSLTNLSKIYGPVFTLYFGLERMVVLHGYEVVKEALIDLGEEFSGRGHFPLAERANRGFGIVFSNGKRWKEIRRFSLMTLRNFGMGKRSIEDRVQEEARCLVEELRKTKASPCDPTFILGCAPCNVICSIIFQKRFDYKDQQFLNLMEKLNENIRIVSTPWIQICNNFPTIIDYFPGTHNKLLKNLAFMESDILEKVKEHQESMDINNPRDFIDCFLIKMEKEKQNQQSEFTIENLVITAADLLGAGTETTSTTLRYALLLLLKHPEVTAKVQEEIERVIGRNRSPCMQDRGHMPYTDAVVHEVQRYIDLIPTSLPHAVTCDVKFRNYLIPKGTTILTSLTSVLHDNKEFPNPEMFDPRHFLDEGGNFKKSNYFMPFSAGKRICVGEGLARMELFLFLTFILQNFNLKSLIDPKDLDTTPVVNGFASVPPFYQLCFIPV

COc1ccc2nc3cc(Cl)ccc3c(Nc3ccc(O)c(CN4CCN(CCN(C)C)CC4)c3)c2c1 [Compound 4]
levels of ERCC1 or XPF vs untreated cells [1]: no significant differences
CPD removal (HCT-116 cells [2]): 60%
PLA: inhibition of the interaction between ERCC1 and XPF (in words) [3]: clear inhibition of the interaction between ERCC1 and XPF
cell survival after UVC (HCT-116 cells [4]): ~ 50%
cell survival with cyclophosphamide (HCT-116 cells [5]): about 75%
Metabolic stability in human liver microsomes (clearance) [6]: 44.0 (mL/min/kg)
Metabolic stability in cryopreserved human hepatocytes (clearance) [7]: 48.8 mL/min/kg
Metabolic stability in cryopreserved human hepatocytes T1/2 [7]: 1.32 h
IC50 (CYP2C9): > 50 µM
IC50 (CYP2C19): > 50 µM
IC50 (CYP2D6): 16 µM
IC50 (CYP3A4-M): 37.1 µM
